Tests used:
[1] = Circular dichroism secondary structure; type: physicochemical; conditions: CD, 100 µM, 190-240 nm, five scans averaged, Provencher & Glockner Method
Method: Circular dichroism (CD) spectroscopy was carried out using a Jasco J-815 spectropolarimeter (Easton, MD, USA). PAM solutions (100 µM) were analyzed in 0.2 mm path-length cuvettes. Measurements were made at 0.5 nm intervals from 190 nm to 240 nm with 1 s intervals and 1 nm bandwidth. Data from five scans were averaged to create the CD spectra, and the secondary structures were quantified using the Provencher & Glockner Method.

murine monocytes = assay: Chemotaxis assay (transwell, migrated monocyte DNA); type: cell-based; conditions: 4 h, 8 µm pore transwell, Pico Green, n = 4
Method: To determine the chemoattractant properties of PAMs, 50,000 monocytes in 20 µL were suspended on a 24-well transwell plate with 8 µm pores. After 4 h, the number of cells that migrated to the bottom well containing 1 µM, 10 µM, 100 µM, 1000 µM PAMs, peptides, or PBS was quantified by lysing the cells via sonication, and measuring DNA using Quant-it Pico Green (Invitrogen, Carlsbad, CA, USA).

Sequence	Secondary Structure, Alpha Helix [1] [%]	Secondary Structure, Beta Sheet [1] [%]	Secondary Structure, Random Coil [1] [%]	Amount of migrated monocyte DNA at 1000 µM (murine monocytes) [ng/mL]
YNFTNRKISVQRLASYRRITSSK [MCP-1 Peptide, MCP-1 peptide (residues 13–35) modified with a cysteine at the N-terminus]	9.2	36.2	54.5	78.98 ± 0.8
YNSLVFRIRNSTQRKYRASIST [Scrambled MCP-1 Peptide, scrambled version of the MCP-1 peptide designed to mimic its secondary structure]	8.6	43.9	47.5	

— paper PMC6278295, “Shape Effects of Peptide Amphiphile Micelles for Targeting Monocytes” (Molecules, 2018)
